Values of other authors as cited in patent US20250268979A1, “COMBINATION OF MACROCYCLIC CFTR MODULATORS WITH CFTR CORRECTORS AND / OR CFTR POTENTIATORS” (Idorsia Pharmaceuticals Ltd, priority 2022, published 2025).
Where two headings read alike, the source gives them in different places.

Columns and labels:
[1] = test system: CF patients with ivacaftor-responsive CFTR mutations; conditions: for mean ctrough plasma concentration: 4 weeks of treatment; for absolute change from baseline in sweat chloride compared to ivacaftor 150 mg b.i.d. / ppFEV1 treatment difference versus ivacaftor 150 mg b.i.d.: 12 weeks
[2] = test system: healthy subjects
[3] = test system: CF patients homozygous for the F508del-CFTR mutation
[4] = target: T1, F508del-CFTR (Homo sapiens, UniProt P13569, DEL508-508); conditions: homozygous F508del-CFTR doners; in the presence of potentiator GLPG1837
T1 construct: from tissue; host or cells: reconstituted bronchial epithelium from CF patients

[5] = test system: CF patients carrying class III, IV CFTR mutations on one allele
[6] = test system: patients with moderate to severe COPD and symptoms of chronic bronchitis; conditions: 300 mg b.i.d., 4 weeks
[7] = test system: healthy volunteers; conditions: up to 1000 mg following SAD and up to 750 mg b.i.d. following MAD
[8] = test system: patients homozygous for the F508del-CFTR mutation; conditions: 450 mg b.i.d.
[9] = target: T1, F508del-CFTR
[10] = test system: F508del-CFTR homozygous patients; conditions: Keating, 2018
[11] = test system: CF patients carrying at least one F508del-CFTR allele
[12] = 14 days, PTI-801 600 mg triple combination
[13] = patients predisposed to rapid pulmonary decline, combo regimen with 600 mg PTI-801

T1 sequence (P13569 with tags, fused parts or gaps DEL508-508): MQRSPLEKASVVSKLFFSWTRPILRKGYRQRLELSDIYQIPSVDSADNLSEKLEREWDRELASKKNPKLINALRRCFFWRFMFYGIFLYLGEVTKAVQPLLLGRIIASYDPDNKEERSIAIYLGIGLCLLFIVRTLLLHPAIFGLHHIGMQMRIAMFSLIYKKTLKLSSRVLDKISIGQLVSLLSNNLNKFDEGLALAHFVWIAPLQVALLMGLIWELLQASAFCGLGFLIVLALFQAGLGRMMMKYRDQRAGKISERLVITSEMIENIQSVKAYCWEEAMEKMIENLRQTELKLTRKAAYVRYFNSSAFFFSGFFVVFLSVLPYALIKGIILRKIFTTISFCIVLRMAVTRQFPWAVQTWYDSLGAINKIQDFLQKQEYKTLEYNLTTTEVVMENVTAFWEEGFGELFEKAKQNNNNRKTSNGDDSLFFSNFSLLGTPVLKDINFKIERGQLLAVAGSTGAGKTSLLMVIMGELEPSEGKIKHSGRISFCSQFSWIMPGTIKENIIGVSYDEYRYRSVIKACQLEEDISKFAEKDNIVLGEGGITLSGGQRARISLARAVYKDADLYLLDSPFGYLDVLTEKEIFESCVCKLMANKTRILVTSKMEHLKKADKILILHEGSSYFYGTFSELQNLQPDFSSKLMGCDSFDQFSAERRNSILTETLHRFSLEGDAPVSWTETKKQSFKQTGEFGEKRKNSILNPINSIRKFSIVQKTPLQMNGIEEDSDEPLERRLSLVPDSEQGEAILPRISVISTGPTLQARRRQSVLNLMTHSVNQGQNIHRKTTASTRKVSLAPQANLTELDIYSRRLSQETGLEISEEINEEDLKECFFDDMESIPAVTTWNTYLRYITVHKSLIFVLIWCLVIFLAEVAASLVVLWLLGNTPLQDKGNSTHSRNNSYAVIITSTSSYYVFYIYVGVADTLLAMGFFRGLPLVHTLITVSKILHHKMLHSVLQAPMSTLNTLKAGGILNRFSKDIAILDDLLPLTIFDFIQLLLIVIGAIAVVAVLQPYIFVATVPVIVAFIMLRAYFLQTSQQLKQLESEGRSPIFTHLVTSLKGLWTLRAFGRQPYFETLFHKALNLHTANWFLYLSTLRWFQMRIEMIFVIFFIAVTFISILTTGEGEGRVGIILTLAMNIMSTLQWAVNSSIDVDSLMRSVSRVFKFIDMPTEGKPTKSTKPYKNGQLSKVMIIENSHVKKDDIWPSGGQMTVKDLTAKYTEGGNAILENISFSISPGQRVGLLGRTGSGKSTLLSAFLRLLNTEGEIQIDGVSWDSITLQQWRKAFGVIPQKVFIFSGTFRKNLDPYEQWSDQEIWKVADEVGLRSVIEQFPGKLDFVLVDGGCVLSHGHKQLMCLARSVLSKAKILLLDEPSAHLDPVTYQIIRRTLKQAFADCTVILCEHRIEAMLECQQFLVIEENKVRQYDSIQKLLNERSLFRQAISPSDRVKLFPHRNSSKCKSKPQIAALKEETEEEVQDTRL

[2H]C([2H])([2H])C(c1cc(C(C)(C)C)c(NC(=O)c2c[nH]c3ccccc3c2=O)cc1O)(C([2H])([2H])[2H])C([2H])([2H])[2H] [deutivacaftor, N-[2-tert-butyl-4-[1,1,1,3,3,3-hexadeuterio-2-(trideuteriomethyl)propan-2-yl]-5-hydroxyphenyl]-4-oxo-1H-quinoline-3-carboxamide]
mean ctrough plasma concentration ([1]; 150 mg once daily): 458 ng/mL | absolute change from baseline in sweat chloride compared to ivacaftor 150 mg b.i.d. ([1]; 150 mg once daily): +2.4 mM | ppFEV1 treatment difference versus ivacaftor 150 mg b.i.d. ([1]; 150 mg once daily): +3.9% | mean ctrough plasma concentration ([1]; 250 mg once daily): 1100 ng/mL | absolute change from baseline in sweat chloride compared to ivacaftor 150 mg b.i.d. ([1]; 250 mg once daily): -7.4 mM | ppFEV1 treatment difference versus ivacaftor 150 mg b.i.d. ([1]; 250 mg once daily): +3.5%

Nc1cc(S(=O)(=O)c2ccc(OC(F)(F)F)cc2)cnc1-c1nnc(CO)o1 [navocaftor, (5-(3-Amino-5-((4-(trifluoromethoxy)phenyl)sulfonyl)pyridin-2-yl)-1,3,4-oxadiazol-2-yl) methanol]
navocaftor exposure in the presence of galicaftor ([2]; in vivo): not apparently altered | tolerability ([2]; up to 1000 mg single dose and up to 500 mg b.i.d. for 14 days): generally well tolerated

O=C(O)c1ccc([C@H]2C[C@@H](NC(=O)C3(c4ccc5c(c4)OC(F)(F)O5)CC3)c3ccc(OC(F)F)cc3O2)cc1 [galicaftor, 4-[(2R,4R)-4-({[1-(2,2-Difluoro-1,3-benzodioxol-5-yl)cyclopropyl]carbonyl}amino)-7-(difluoromethoxy)-3,4-dihydro-2H-chromen-2-yl]benzoic Acid]
change in sweat chloride versus placebo ([3]; 200 mg dose group, day 29): -15.8 mM | tolerability and safety ([3]; 4 weeks, once-daily 50, 100, 200 and 400 mg): well tolerated and safe | change from baseline in CFQ-R score versus placebo ([3]; day 29): No significant changes versus placebo | change from baseline in ppFEV1 versus placebo ([3]; day 29): No significant changes versus placebo | EC50 [4]: 5 nM | galicaftor exposure in the presence of two different doses of navocaftor ([2]; in vivo): similar

COc1nc(C(=O)NC[C@](C)(O)C(F)(F)F)c(N)cc1C(F)(F)F [icenticaftor, 3-Amino-6-methoxy-N-[(2S)-3,3,3-trifluoro-2-hydroxy-2-methylpropyl]-5-(trifluoromethyl)pyridine-2-carboxamide]
LCI2.5 compared to placebo ([5]; 450 mg b.i.d., 14 days): −1.13 | ppFEV1 increase versus placebo ([5]; 450 mg b.i.d., 14 days): 6.5% | sweat chloride concentration versus placebo ([5]; 450 mg b.i.d., 14 days): -8.4 mM | tolerability in CF patients ([5]; 150 and 450 mg b.i.d., across all patient sub-groups): well tolerated | LCI2.5 compared to placebo [6]: did not change | sweat chloride compared to placebo ([6]; average baseline 23 mM): -5.04 mM | FEV1 compared to placebo ([6]; average baseline 1.4-1.5 L): 0.05 to 0.06 L | plasma fibrinogen compared to placebo ([6]; average baseline 3.2 g/L): -0.39 g/L | tolerability [7]: well tolerated | sweat chloride and lung function [8]: no reduction in sweat chloride or improvement in lung function

CC(C)(C)c1cc(C(C)(C)C)c(NC(=O)c2c[nH]c3ccccc3c2=O)cc1O [ivacaftor, N-(2,4-di-tert-butyl-5-hydroxyphenyl)-1,4-dihydro-4-oxoquinoline-3-carboxamide]
further augmentation of function on addition to tezacaftor and elexacaftor ([9]; Keating, 2018): 2 fold | augmentation of CFTR function on addition to lumacaftor-corrected F508del-CFTR ([9]; van Goor, 2011): almost two-fold | mean ctrough plasma concentration ([1]; 150 mg b.i.d.): 952 ng/mL

Cc1nn(C)cc1S(=O)(=O)NC(=O)c1ccc(-n2ccc(OCC(C)(C)C(F)(F)F)n2)nc1N1C[C@@H](C)CC1(C)C [elexacaftor, N-(1,3-dimethyl-1H-pyrazole-4-sulfonyl)-6-[3-(3,3,3-trifluoro-2,2-dimethylpropoxy)-1H-pyrazol-1-yl]-2-[(4S)-2,2,4-trimethylpyrrolidin-1-yl]pyridine-3-carboxamide]
ppFEV1 increase on adding to basal treatment of tezacaftor+ivacaftor (SYMDEKO) [10]: 10%

Cc1c(-c2cc(C(=O)O)c3c(O[C@H](C)C4CCOCC4)ccc(C)c3n2)oc2ccccc12 [PTI-801]
decrease in sweat chloride compared with before treatment [11, 12]: 19 mM | decrease in sweat chloride compared with placebo [11, 12]: 24 mM | increase in mean absolute ppFEV1 compared with before the treatment ([11]; 14 days, PTI-801 600 mg with PTI-808 150 mg and PTI-428 30 mg): 5% | improvement in ppFEV1 compared with before treatment [11, 13]: 6% | improvement in ppFEV1 compared with placebo [11, 13]: 8%
